Results from ChEMBL document CHEMBL4270550, “Synthesis of pyrazolo[3,4-d]pyrimidin-4(5H)-ones tethered to 1,2,3-triazoles and their evaluation as potential anticancer agents” (2018).

What was measured:
C6 [1] = test: Antiproliferative activity against rat C6 cells at 10 uM after 48 hrs by MTT assay relative to control; assay type: functional
U-87 MG [2] = test: Antiproliferative activity against human U87 cells at 10 uM after 48 hrs by MTT assay relative to control; assay type: functional, U-87MG ATCC
U-87 MG [3] = test: Cell cycle arrest in human U87 cells assessed as accumulation of cells at G0/G1 phase at 10 uM after 48 hrs by propidium iodide staining-based flow cytometric analysis (reference value: 71.7%); assay type: functional, U-87MG ATCC
U-87 MG [4] = test: Cell cycle arrest in human U87 cells assessed as accumulation of cells at G2/M phase at 10 uM after 48 hrs by propidium iodide staining-based flow cytometric analysis (reference value: 19.4%); assay type: functional, U-87MG ATCC
U-87 MG [5] = test: Cell cycle arrest in human U87 cells assessed as accumulation of cells at S phase at 10 uM after 48 hrs by propidium iodide staining-based flow cytometric analysis (reference value: 8.95%); assay type: functional, U-87MG ATCC
U-87 MG [6] = test: Cell cycle arrest in human U87 cells assessed as accumulation of cells at G0/G1 phase at 25 uM after 48 hrs by propidium iodide staining-based flow cytometric analysis (reference value: 71.7%); assay type: functional, U-87MG ATCC
U-87 MG [7] = test: Cell cycle arrest in human U87 cells assessed as accumulation of cells at G2/M phase at 25 uM after 48 hrs by propidium iodide staining-based flow cytometric analysis (reference value: 19.4%); assay type: functional, U-87MG ATCC
U-87 MG [8] = test: Cell cycle arrest in human U87 cells assessed as accumulation of cells at S phase at 25 uM after 48 hrs by propidium iodide staining-based flow cytometric analysis (reference value: 8.95%); assay type: functional, U-87MG ATCC
U-87 MG [9] = test: Cell cycle arrest in human U87 cells assessed as accumulation of cells at G0/G1 phase at 50 uM after 48 hrs by propidium iodide staining-based flow cytometric analysis (reference value: 71.7%); assay type: functional, U-87MG ATCC
U-87 MG [10] = test: Cell cycle arrest in human U87 cells assessed as accumulation of cells at G2/M phase at 50 uM after 48 hrs by propidium iodide staining-based flow cytometric analysis (reference value: 19.4%); assay type: functional, U-87MG ATCC
U-87 MG [11] = test: Cell cycle arrest in human U87 cells assessed as accumulation of cells at S phase at 50 uM after 48 hrs by propidium iodide staining-based flow cytometric analysis (reference value: 8.95%); assay type: functional, U-87MG ATCC
C6 [12] = test: Antiproliferative activity against rat C6 cells after 48 hrs by MTT assay; assay type: functional, cell-based
U-87 MG [13] = test: Antiproliferative activity against human U87 cells after 48 hrs by MTT assay; assay type: functional, cell-based; conditions: U-87MG ATCC
U-87 MG [14] = test: Induction of apoptosis in human U87 cells after 48 hrs by propidium iodide staining-based flow cytometric analysis; assay type: functional, cell-based; conditions: U-87MG ATCC
U-87 MG [15] = test: Induction of apoptosis in human U87 cells assessed as increase in caspase3 expression by Western blot analysis; assay type: functional, cell-based; conditions: U-87MG ATCC
U-87 MG [16] = test: Induction of apoptosis in human U87 cells assessed as increase in cleaved PARP levels by Western blot analysis; assay type: functional, cell-based; conditions: U-87MG ATCC
U-87 MG [17] = test: Induction of apoptosis in human U87 cells assessed as increase in p53 levels by Western blot analysis; assay type: functional, cell-based; conditions: U-87MG ATCC

| SMILES | Activity (C6 [1]) [%] | Activity (U-87 MG [2]) [%] | other results |
| --- | --- | --- | --- |
| O=c1c2cnn(-c3ccccc3)c2ncn1Cc1cn(-c2cccc(Cl)c2)nn1 | 17.87 | 47.69 | Activity (U-87 MG [3]): 73.3%; Activity (U-87 MG [4]): 12.52%; Activity (U-87 MG [5]): 14.18%; Activity (U-87 MG [6]): 80.8%; Activity (U-87 MG [7]): 2.03%; Activity (U-87 MG [8]): 17.13%; Activity (U-87 MG [9]): 62.6%; Activity (U-87 MG [10]): 0.08%; Activity (U-87 MG [11]): 37.4%; Activity (C6 [12]): Dose-dependent effect; Activity (U-87 MG [13]): Dose-dependent effect; Activity (U-87 MG [14]): Dose-dependent effect; Activity (U-87 MG [15]): Dose-dependent effect; Activity (U-87 MG [16]): Dose-dependent effect; Activity (U-87 MG [17]): Dose-dependent effect |
| O=c1c2cnn(-c3ccccc3)c2ncn1Cc1cn(-c2ccccc2F)nn1 |  | 46.35 |  |
| O=c1c2cnn(-c3ccc(Cl)cc3)c2ncn1Cc1cn(-c2ccccc2)nn1 |  | 40.98 |  |
| COc1ccccc1-n1cc(Cn2cnc3c(cnn3-c3ccccc3)c2=O)nn1 | 4.91 | 15.7 |  |
| Cc1cccc(-n2cc(Cn3cnc4c(cnn4-c4ccc(Cl)cc4)c3=O)nn2)c1C | 35.91 | 54.42 |  |
| O=c1c2cnn(-c3ccccc3)c2ncn1Cc1cn(-c2ccccc2)nn1 | 34.1 | 52.34 |  |
| Cc1ccccc1-n1cc(Cn2cnc3c(cnn3-c3ccccc3)c2=O)nn1 | 13.64 | 21.32 |  |
| O=c1c2cnn(-c3ccc(Cl)cc3)c2ncn1Cc1cn(-c2ccccc2F)nn1 |  | 21.31 |  |
| COc1ccccc1-n1cc(Cn2cnc3c(cnn3-c3ccc(Cl)cc3)c2=O)nn1 | 16.37 | 32.98 |  |
| O=c1c2cnn(-c3ccc(Cl)cc3)c2ncn1Cc1cn(-c2cccc(Cl)c2)nn1 | 9.55 | 47.29 |  |
| Cc1ccc(-n2cc(Cn3cnc4c(cnn4-c4ccccc4)c3=O)nn2)cc1 | 16.87 | 41.62 |  |
| Cc1cccc(-n2cc(Cn3cnc4c(cnn4-c4ccccc4)c3=O)nn2)c1C |  | 40.6 |  |
